Assay results published in patent US20090221665A1, “Organic Compounds” (priority 2005, published 2009).

Test system: male rats
Assay: Fecal pellet output in male rats after i.p. dosing
Format: in vivo, rat
Details: for fecal pellet output (in words): dosed alone, every 30 mins for 2 hr
Protocol: Methods: In male rats (200-300 g) fecal pellet output was measured every 30 mins for 2 hr following administration of tegaserod (0.01-1.0 mg/kg i.p.), neostigmine (0.01-0.1 mg/kg i.p.) or a combination of both compounds.

SMILES | # Fecal Pellets (Teg 0.01 mg/kg i.p. alone, 30 min) | # Fecal Pellets (Teg 0.01 mg/kg i.p. alone, 60 min) | # Fecal Pellets (Teg 0.01 mg/kg i.p. alone, 90 min) | # Fecal Pellets (Teg 0.01 mg/kg i.p. alone, 120 min) | # Fecal Pellets (Teg 0.1 mg/kg i.p. alone, 30 min) | # Fecal Pellets (Teg 0.1 mg/kg i.p. alone, 60 min) | # Fecal Pellets (Teg 0.1 mg/kg i.p. alone, 90 min) | # Fecal Pellets (Teg 0.1 mg/kg i.p. alone, 120 min) | fecal pellet output (in words) (tegaserod 0.01-1.0 mg/kg i.p.) | # Fecal Pellets (Neo 0.01 mg/kg i.p. alone, 30 min) | # Fecal Pellets (Neo 0.01 mg/kg i.p. alone, 60 min) | # Fecal Pellets (Neo 0.01 mg/kg i.p. alone, 90 min) | # Fecal Pellets (Neo 0.01 mg/kg i.p. alone, 120 min) | fecal pellet output (in words) (neostigmine 0.01-0.1 mg/kg i.p.)
CCCCCNC(=N)N/N=C/c1c[nH]c2ccc(OC)cc12 [Teg, 3-(5-methoxy-1H-indol-3-yl-methylene)-N-pentylcarbazimidamide] | 0.17 ± 0.17 | 0.17 ± 0.17 | 0.33 ± 0.21 | 1.50 ± 0.62 | 0.83 ± 0.32 | 1.25 ± 0.35 | 1.50 ± 0.34 | 1.83 ± 0.39 | dose and time-dependent increase in fecal pellet output |  |  |  |  | 
CN(C)C(=O)Oc1cccc([N+](C)(C)C)c1 [Neo, neostigmine] |  |  |  |  |  |  |  |  |  | 0.67 ± 0.33 | 1.00 ± 0.58 | 1.00 ± 0.58 | 1.33 ± 0.67 | dose and time-dependent increase in fecal pellet output
